We go through 58 compounds from the METLIN SMRT retention time set (Domingo-Almenara et al. 2019).

The nature of the data set: gradient 5% acetonitrile 3 min, to 50% in 2 min, to 85% in 15 min, held 3 min, 100 µL/min. Particulars: column: Zorbax Extend-C18 2.1 x 50 mm; eluents: water / acetonitrile, 0.1% formic acid. An outline of the steps: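 Retention time was recorded from adduct peaks, which were picked computationally and each inspected manually. Pure standards ran in mixtures of ~100 molecules on HPLC coupled to a quadrupole time-of-flight mass spectrometer, in positive and negative ionization mode, through a Zorbax Extend-C18 column (2.1 × 50 mm, 1.8 μm) at 100 μL/min. Eluents were water and acetonitrile, each with 0.1% formic acid.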
Take `O=C(Nc1ccccc1)C1CCCN(c2ccc3cc(S(=O)(=O)N4CCCC4)ccc3n2)C1` (stereo not drawn): the RP-LC retention time stood at 773 s.

In turn, `Cc1ncsc1CN1CCCC(c2nncn2-c2ccccc2)C1` (stereo not drawn) showed an RP-LC retention time of 496 s.

`Fc1ccc(-c2noc(Cc3nnc(-c4ccc(Cl)cc4)o3)n2)cc1`: the RP-LC retention time came out at 1070 s.

Compound `COC(=O)CNC(=O)N1CCC(N2C(=O)C3(CCCC3)C2c2scnc2C)CC1` (stereo not drawn) gave an RP-LC retention time of 653 s. To `CC(=O)c1ccc(NC(=O)c2noc3c2CCCC3)cc1` belongs 871 s; to `COc1ccc(NC(=O)c2csc3c2CCCC3)cc1`, 894 s; to `Cc1cc(NC(=O)CSc2nnc(Cc3cccn3C)n2CCc2ccccc2)no1`, 762 s. Compound `CCNc1nc(C)cc(N2CCN(S(=O)(=O)c3ccc(Cl)c(Cl)c3)CC2)n1` returned an RP-LC retention time of 770 s. In the case of `COc1cccc(N2CCN(c3ccc(-c4nc(-c5cccc(F)c5)no4)cn3)CC2)c1` it was 1310 s; in that of `Cc1ccccc1S(=O)(=O)N1CCC2(CC1)NCCN=C2NCc1cccc(F)c1`, 712 s. To `O=C(NCc1ccccc1F)c1cn2cc(Cl)ccc2n1` belongs 723 s; to `Cc1cc2nn(CC(=O)NCc3ccccc3)c(=O)n2c(-c2cccc(F)c2)n1`, 627 s.

`COc1cc(NC(=O)C(C)Oc2ccc(=O)n(-c3ccc(F)cc3)n2)cc(OC)c1OC` (stereo not drawn) came in with an RP-LC retention time of 719 s.

Consider `CCOC(=O)c1ccc2nc(C)cc(NC(=O)c3ccco3)c2c1`, for which the RP-LC retention time was 583 s. `Cc1noc([C@@H]2CN(Cc3ccccc3C(F)(F)F)C[C@H]2CO)n1` showed an RP-LC retention time of 604 s. `CC(C)c1ccc(NC(=O)CN2C(=O)C3CCCCN3c3ccc(S(=O)(=O)N(C)C)cc32)cc1` (stereo not drawn) yielded an RP-LC retention time of 955 s. To `CC(NC(=O)c1ccccc1)c1nc(-c2ccc3c(c2)nnn3C2CCCC2)no1` (stereo not drawn) belongs 964 s; to `Cc1ccc(-c2cc3c4nnc(SCC(=O)Nc5ccc(F)cc5)n4ccn3n2)cc1C`, 931 s. For `CN(CC1CCOCC1)S(=O)(=O)c1ccccc1C(F)(F)F`, the RP-LC retention time came out at 861 s. To `Cc1nnc(N2CCCC(C(=O)NCc3cccc(F)c3)C2)c2nn(-c3ccc(Cl)cc3)c(C)c12` (stereo not drawn) belongs 757 s; to `CCOC(=O)c1[nH]c(C)c(CCC(=O)N2CCCC(C(=O)NCc3cc(OC)ccc3OC)C2)c1C` (stereo not drawn), 799 s; to `Cn1nc(-c2nnc(-c3ccc(F)cc3)o2)c2c1CCN(S(=O)(=O)c1ccc3c(c1)CCC3)C2`, 1290 s. The compound `COc1ccc(NC(=O)N2CCC(CC(=O)N3CCCCC3)CC2)cc1` came in with an RP-LC retention time of 706 s. In the case of `Cc1cccc(NC(=O)N2CCc3c(c(-c4nnc(-c5ccc(F)cc5)o4)nn3C)C2)c1C` it was 854 s. In the case of `CN1C(=O)c2cccnc2Sc2cc(NC(=O)c3ccncc3)ccc21` it was 606 s; in that of `CC(C)n1cc(S(=O)(=O)NCc2ccccc2C(F)(F)F)c2cccnc21`, 977 s; in that of `Cc1ccc2nc(-c3ccc(NS(=O)(=O)c4cn(C)c(=O)n(C)c4=O)cc3)sc2c1`, 870 s. To `CC1CCC(C(=O)Nc2cc3c(cc2N2CCOCC2)n(C)c(=O)c(=O)n3C)CC1` (stereo not drawn) belongs 782 s; to `O=C(C1=NNc2cc(Cl)ccc2S1(=O)=O)N1CCOCC1`, 664 s; to `Cc1cccc(Sc2nccnc2N2CCC(C(=O)NC3CCCCC3)CC2)c1`, 1150 s. Take `COCCCNC(=O)Cn1ncc2c(C)n(Cc3ccc(Cl)cc3)c(C)c2c1=O`: the RP-LC retention time worked out at 775 s.

Compound `CCc1ccc2nc(Nc3ncc4c(n3)CCCC4=O)nc(C)c2c1` came in with an RP-LC retention time of 650 s. To `COCc1nc(C2CCN(C(=O)NCC(C)C)C2)no1` (stereo not drawn) belongs 636 s; to `CSc1ccc(Cl)c(C(=O)N2CC(=O)Nc3ccccc32)c1`, 796 s; to `COc1cc2c(cc1OC)-c1cc(=Nc3c(C)cc(C)cc3C)n(C)c(=O)n1CC2`, 765 s. To `Cc1ccc(N2CN(CC#N)S(=O)(=O)c3cccnc32)cc1` belongs 877 s.

Regarding `CCc1nc(-c2csc(S(=O)(=O)N3CCC(C(=O)Nc4ccc(C)cn4)CC3)c2)no1`, the RP-LC retention time was found to be 799 s. For the compound `O=C(c1ccc(N2C(=O)CCS2(=O)=O)cc1Cl)N1CCN(c2ccccn2)CC1`, the RP-LC retention time was 583 s. `COC(=O)c1ccc(NC(=O)C2CC(=O)N(CCc3c[nH]c4ccc(F)cc34)C2)cc1` (stereo not drawn) displayed an RP-LC retention time of 799 s. To `COc1ccc(OC)c(CCN2CC(=O)N(c3cccc(C)c3)[C@@H]3CS(=O)(=O)C[C@@H]32)c1` belongs 848 s.

Consider `O=C(N1CC(Oc2ccc(-c3nc(-c4ccccc4)no3)cc2)C1)C1(c2ccccc2)CC1`, for which the RP-LC retention time was determined as 1310 s.

With `O=C(C1=CN(c2ccc3c(c2)OCCO3)c2cc(Cl)ccc2S1(=O)=O)N1CCCCC1`, the RP-LC retention time was 873 s. `CCCC1c2nccn2CCCN1C(=O)c1occc1C` (stereo not drawn) registered an RP-LC retention time of 611 s. In the case of `CCc1ccccc1NC(=O)Cn1c(N)nc(COC)cc1=O` it was 598 s. To `O=C(NC1CC1)C1CCN(S(=O)(=O)c2cc(-c3noc(C4CCC4)n3)cs2)CC1` belongs 878 s; to `O=C(Nc1cccc(C(F)(F)F)c1)NC1CCN(c2ccccc2)C1=O` (stereo not drawn), 926 s; to `CCOc1ccc(-c2nc(-c3cccc(-c4ccn[nH]4)c3)no2)cc1OCC`, 1080 s.

The compound `CCc1ccc(OCC(=O)Nc2ccc(S(N)(=O)=O)cc2)c(Br)c1` displayed an RP-LC retention time of 836 s. Compound `O=C(Cc1cccn1-c1ccc(F)cc1)NCc1ccc(F)cc1` yielded an RP-LC retention time of 922 s. Compound `CCn1c(CC2C(=O)Nc3ccccc32)nc2ccccc2c1=O` (stereo not drawn) had an RP-LC retention time of 730 s. In the case of `O=C(Nc1cc(F)ccc1Cl)c1cnc(-c2ccc(F)cc2)nc1-c1ccncc1` it was 1010 s.

Turning to `Cc1noc(C)c1C(=O)N1CCCn2ccnc2C1C1CCCC1` (stereo not drawn), the RP-LC retention time is 587 s.

Take `Cc1noc(C2CN(C(=O)Nc3ccccc3F)CC23CCOCC3)n1` (stereo not drawn): the RP-LC retention time stood at 694 s. In the case of `CN(C(=O)Cn1nc(Cc2ccncc2)c2ccccc2c1=O)c1ccc(Br)cc1` it was 655 s; in that of `Cc1cccc(C)c1OCC(=O)N(Cc1ccc(Br)o1)C1CCS(=O)(=O)C1` (stereo not drawn), 960 s. The compound `Cc1cnn(Cc2nc(-c3ccc(NC(=O)c4ccsc4)cc3)oc2C)c1` had an RP-LC retention time of 876 s. To `O=C(Nc1ccc(-c2cn3cccnc3n2)cc1)c1cccs1` belongs 629 s. To `CCCN1C(=O)c2c(C(=O)NCc3ccccc3F)ncn2CC1(C)C(=O)NCCC(C)C` (stereo not drawn) belongs 836 s.
